Experimental data taken from EP1561465A2, “Methods of use of fluoroquinolone compounds against bacteria” (LG Life Sciences, Ltd., priority 1999, dated 2001).
≈ marks a conversion by molar mass, not a printed value. Where two headings read alike, the source gives them in different places.

What was measured:
Assay type in all cases: cell-based
Salmonella spp. = assay: MIC by agar dilution (NCCLS M7-A4), 288 enteropathogenic isolates, eight quinolones; conditions: for MIC: ciprofloxacin MIC ≥[…], read-out: MIC
Enterococcus faecium = assay: MIC by NCCLS broth microdilution, 1100 Japanese clinical isolates 1997-1998; conditions: for MIC: Enterococcus faecium
Klebsiella oxytoca = assay: as above; conditions: Klebsiella oxytoca (n=40)
Klebsiella pneumoniae [1] = assay: MIC by NCCLS reference broth microdilution, 450 respiratory tract pathogens; conditions: for MIC50 / MIC90: Klebsiella pneumoniae
Streptococcus pneumoniae = assay: MIC by two-fold serial agar dilution, Sensitivity Disk agar-N (Kitasato isolates); conditions: Streptococcus pneumoniae; for MIC90: read-out: MIC90; for MIC: read-out: MIC Range; for MIC50: read-out: MIC50
Campylobacter jejuni = assay: MIC by agar dilution (NCCLS M7-A4), 5% sheep blood, microaerophilic 48 h; conditions: Campylobacter jejuni (n=91)
E. coli = assay: microbe, parasite or virus in culture; conditions: Escherichia coli
Staphylococcus aureus = assay: MIC by agar dilution (NCCLS), 411 isolates Buenos Aires 1998-99; conditions: for MIC90: Staphylococcus aureus
Hafnia alvei = assay: MIC by agar dilution (NCCLS M7-A4), 288 enteropathogenic isolates, eight quinolones; conditions: Hafnia alvei (n = 32)
Yersinia enterocolitica = assay: as above; conditions: Yersinia enterocolitica (n = 22)
Enterococcus gallinarum = assay: MIC by NCCLS broth microdilution, 1100 Japanese clinical isolates 1997-1998; conditions: Enterococcus gallinarum, GALLINARUM, Enterococcus gallinarum (vanC1), read-out: MIC
Streptococcus pyogenes = assay: as above; conditions: Streptococcus pyogenes (n=51)
[2] = system: Streptococcus pneumoniae and Haemophilus influenzae; assay: MIC by broth microdilution (NCCLS), all isolates pooled
Proteus mirabilis = assay: MIC by NCCLS broth microdilution, 1100 Japanese clinical isolates 1997-1998
Klebsiella pneumoniae [3] = assay: as above
Enterobacter cloacae = assay: as above; conditions: Enterobacter cloacae (n=40)
Enterobacter aerogenes = assay: as above; conditions: Enterobacter aerogenes (n=35)
[4] = extended spectrum β-lactamase negative (n = 30)
[5] = extended spectrum β-lactamase positive (n = 20)
[6] = S. aureus, Methicillin resistant (n = 14)
[7] = S. aureus, Methicillin susceptible (n = 66)

## C[C@H]1COc2c(N3CCN(C)CC3)c(F)cc3c(=O)c(C(=O)O)cn1c23 [Levofloxacin, levofloxacin]
Salmonella spp.; S. hadar (n = 2)
  MIC: 1 µg/mL (≈ 2.77 µM)
Salmonella spp.; S. newport (n = 1)
  MIC: 1 µg/mL (≈ 2.77 µM)
Salmonella spp.; S. virchow (n = 2)
  MIC: 0.25 µg/mL (≈ 0.692 µM)
Salmonella spp.; Salmonella spp. (n = 106)
  % Susceptible: 100%
  MIC50: 0.06 µg/mL (≈ 0.166 µM)
  MIC90: 0.25 µg/mL (≈ 0.692 µM)
  MIC Range: 0.06 to 1 µg/mL
Salmonella spp.; Salmonella, S. tshiongwe (n = 1)
  MIC: 1 µg/mL (≈ 2.77 µM)
Enterococcus faecium; Enterococcus faecium (n=39)
  MIC50: 32 µg/mL (≈ 88.6 µM)
  MIC90: 128 µg/mL (≈ 354 µM)
Enterococcus faecium; Enterococcus faecium (vanA) vancomycin resistant, strain TMS1
  MIC: 64 µg/mL (≈ 177 µM)
Enterococcus faecium; Enterococcus faecium (vanA) vancomycin resistant, strain TMS2
  MIC: 2 µg/mL (≈ 5.53 µM)
Enterococcus faecium; Enterococcus faecium (vanA) vancomycin resistant, strain TMS3
  MIC: 32 µg/mL (≈ 88.6 µM)
Enterococcus faecium; Enterococcus faecium (vanA) vancomycin resistant, strain TMS4
  MIC: 32 µg/mL (≈ 88.6 µM)
Enterococcus faecium; Enterococcus faecium (vanA) vancomycin resistant, strain TMS5
  MIC: 4 µg/mL (≈ 11.1 µM)
Enterococcus faecium; Enterococcus laecium (van B) vancomycin resistant, strain TMS6
  MIC: 32 µg/mL (≈ 88.6 µM)
Enterococcus faecium; Enterococcus laecium (van B) vancomycin resistant, strain TMS7
  MIC: 32 µg/mL (≈ 88.6 µM)
Klebsiella oxytoca
  MIC50: 0.063 µg/mL (≈ 0.174 µM)
  MIC90: 4 µg/mL (≈ 11.1 µM)
  MIC Range: 0.016 to 16 µg/mL
Klebsiella pneumoniae [1]; Klebsiella pneumoniae (n = 50)
  MIC Range: 0.15 to 1 µg/mL
  MIC50: 0.06 µg/mL (≈ 0.166 µM)
  MIC90: 0.5 µg/mL (≈ 1.38 µM)
Klebsiella pneumoniae [1]; [4]
  MIC50: 0.06 µg/mL (≈ 0.166 µM)
  MIC90: 0.12 µg/mL (≈ 0.332 µM)
  MIC Range: 0.015 to 0.5 µg/mL
Klebsiella pneumoniae [1]; [5]
  MIC50: 0.5 µg/mL (≈ 1.38 µM)
  MIC90: 0.5 µg/mL (≈ 1.38 µM)
  MIC Range: 0.06 to 1 µg/mL
Streptococcus pneumoniae; 18 h, Ciprofloxacin-resistant (21), ciprofloxacin MIC ≥8 µg/ml
  MIC90: 16 µg/mL (≈ 44.3 µM)
Streptococcus pneumoniae; 18 h, Ciprofloxacin-resistant (21)
  MIC: 2 to 32 µg/mL (≈ 5.53 to 88.6 µM)
Streptococcus pneumoniae; 18 h, Ciprofloxacin-susceptible (94)
  MIC: 0.25 to 2 µg/mL (≈ 0.692 to 5.53 µM)
Streptococcus pneumoniae; 18 h, Erythromycin-resistant (37)
  MIC: 0.5 to 16 µg/mL (≈ 1.38 to 44.3 µM)
Streptococcus pneumoniae; 18 h, Minocycline-resistant (37)
  MIC: 0.25 to 16 µg/mL (≈ 0.692 to 44.3 µM)
Streptococcus pneumoniae; 18 h, Penicillin-resistant (19)
  MIC: 0.5 to 8 µg/mL (≈ 1.38 to 22.1 µM)
Streptococcus pneumoniae; Ciprofloxacin-resistant (21)
  MIC50: 16 µg/mL (≈ 44.3 µM)
Streptococcus pneumoniae; Ciprofloxacin-susceptible (94)
  MIC50: 0.5 µg/mL (≈ 1.38 µM)
  MIC90: 1 µg/mL (≈ 2.77 µM)
Streptococcus pneumoniae; Erythromycin-resistant (37)
  MIC50: 1 µg/mL (≈ 2.77 µM)
  MIC90: 2 µg/mL (≈ 5.53 µM)
Streptococcus pneumoniae; Minocycline-resistant (37)
  MIC50: 1 µg/mL (≈ 2.77 µM)
  MIC90: 2 µg/mL (≈ 5.53 µM)
Streptococcus pneumoniae; Penicillin-resistant (19)
  MIC50: 0.5 µg/mL (≈ 1.38 µM)
  MIC90: 1 µg/mL (≈ 2.77 µM)
Campylobacter jejuni
  % Susceptible: 31.86%
  MIC50: 8 µg/mL (≈ 22.1 µM)
  MIC90: 32 µg/mL (≈ 88.6 µM)
  MIC Range: 0.06 to 128 µg/mL
E. coli; E. coli (13 strains), quinolone-resistant, read-out: MIC50
  MIC50: 0.125 µg/mL (≈ 0.346 µM)
E. coli; E. coli (13 strains), quinolone-resistant, read-out: MIC90
  MIC90: 1 µg/mL (≈ 2.77 µM)
E. coli; E. coli KU1029, mutant type SP (spontaneous mutant in the DNA gyrase)
  MIC: 0.063 µg/mL (≈ 0.174 µM)
E. coli; E. coli KU1030, mutant type SP
  MIC: 0.125 µg/mL (≈ 0.346 µM)
E. coli; E. coli KU1031, mutant type SP
  MIC: 0.063 µg/mL (≈ 0.174 µM)
E. coli; E. coli KU1032, mutant type SP
  MIC: 0.25 µg/mL (≈ 0.692 µM)
E. coli; E. coli KU1033, mutant type SP
  MIC: 0.063 µg/mL (≈ 0.174 µM)
E. coli; E. coli KU1034, mutant type GA (DNA gyrase A)
  MIC: 1 µg/mL (≈ 2.77 µM)
E. coli; E. coli KU1035, mutant type GA (DNA gyrase A)
  MIC: 1 µg/mL (≈ 2.77 µM)
E. coli; E. coli KU1036, mutant type GB (DNA gyrase B)
  MIC: 0.125 µg/mL (≈ 0.346 µM)
E. coli; E. coli KU1038, mutant type SP
  MIC: 0.125 µg/mL (≈ 0.346 µM)
E. coli; E. coli KU1039, mutant type SP
  MIC: 0.25 µg/mL (≈ 0.692 µM)
E. coli; E. coli KU1040, mutant type SP
  MIC: 0.031 µg/mL (≈ 0.0858 µM)
E. coli; E. coli KU1041, mutant type SP
  MIC: 0.5 µg/mL (≈ 1.38 µM)
E. coli; E. coli KU1042, mutant type SP
  MIC: 0.063 µg/mL (≈ 0.174 µM)
Staphylococcus aureus; [6]
  Resistance (%): 100%
  MIC90: 8 µg/mL (≈ 22.1 µM)
Staphylococcus aureus; [7]
  Resistance (%): 0%
  MIC90: 0.25 µg/mL (≈ 0.692 µM)
Staphylococcus aureus; Staphylococcus aureus (n = 80)
  MIC Range: 0.06 to 8 µg/mL
  MIC90: 4 µg/mL (≈ 11.1 µM)
Hafnia alvei
  % Susceptible: 100%
  MIC50: 0.03 µg/mL (≈ 0.083 µM)
  MIC90: 0.03 µg/mL (≈ 0.083 µM)
  MIC Range: ≤0.015 to 0.03 µg/mL
Yersinia enterocolitica
  % Susceptible: 100%
  MIC50: 0.06 µg/mL (≈ 0.166 µM)
  MIC90: 0.06 µg/mL (≈ 0.166 µM)
  MIC Range: 0.03 to 0.5 µg/mL
Enterococcus gallinarum; strain TMS1
  MIC: 1 µg/mL (≈ 2.77 µM)
Enterococcus gallinarum; strain TMS2
  MIC: 2 µg/mL (≈ 5.53 µM)
Enterococcus gallinarum; strain TMS3
  MIC: 1 µg/mL (≈ 2.77 µM)
Enterococcus gallinarum; strain TMS4
  MIC: 0.5 µg/mL (≈ 1.38 µM)
Streptococcus pyogenes
  MIC90: 2 µg/mL (≈ 5.53 µM)
  MIC Range: 0.5 to 2 µg/mL
[2]; all (380) isolates tested (235 S. pneumoniae, 145 H. influenzae)
  MIC90: 1 µg/mL (≈ 2.77 µM)
[2]; all isolates tested (602)
  MIC90: 1 µg/mL (≈ 2.77 µM)
Proteus mirabilis; Proteus mirabilis
  MIC90: 0.125 µg/mL (≈ 0.346 µM)
Proteus mirabilis; Proteus mirabilis (n=30)
  MIC Range: 0.032 to 2 µg/mL
Proteus mirabilis; Proteus mirabilis (n=30), read-out: MIC50
  MIC50: 0.063 µg/mL (≈ 0.174 µM)
Klebsiella pneumoniae [3]; Klebsiella pneumoniae
  MIC90: 0.125 µg/mL (≈ 0.346 µM)
Klebsiella pneumoniae [3]; Klebsiella pneumoniae (n=35)
  MIC50: 0.032 µg/mL (≈ 0.0886 µM)
  MIC Range: 0.016 to 4 µg/mL
Enterobacter cloacae
  MIC50: 0.032 µg/mL (≈ 0.0886 µM)
  MIC90: 0.5 µg/mL (≈ 1.38 µM)
  MIC Range: 0.016 to 1 µg/mL
Enterobacter aerogenes
  MIC Range: 0.016 to 0.25 µg/mL
Enterobacter aerogenes; Klebsiella aerogenes
  MIC50: 0.032 µg/mL (≈ 0.0886 µM)
  MIC90: 0.063 µg/mL (≈ 0.174 µM)
